Experiment [1] has as its system S. aureus ATCC 10390. The experiment is described as follows: Estimated MIC, solution-phase microdilution absorbance assay with crude macroarray spot stock solutions. It is filed as cell-based, Staphylococcus aureus. The following applies: for MIC: Staphylococcus aureus, ATCC10390, 12 h. The method, then: Spots from a new 69 member chalcone macroarray as well as the three heterocyclic macroarrays prepared earlier were punched out, cleaved, and eluted with acetonitrile. The resulting solutions were concentrated to a residue that was taken up in DMSO to form 2 mM stock solutions.
From the stock solutions, microdilution assays in a 96 well plate starting at 50 μM were performed in quadruplicate. Each well contained 5 μL of the stock solution as well as 195 μL of a S. aureus culture. The turbidity of each well was measured after incubating 12 hours using a standard plate reader. Active compounds can be further diluted and the assay repeated.
To acquire more quantitative antibacterial activity data about our compounds and verify our on-support assay results, we performed solution-phase absorbance assays that provided estimates of the minimum inhibitory concentration (MIC) of each macroarray member against S. aureus. Stock solutions (ca. 2 mM) were generated by cleaving and eluting 198 individual compounds from chalcone (3) and heterocyclic macroarrays (5, 7, and 8). […] The good overall purities of the crude macroarray compounds allowed for reasonable estimations of MICs.
(§1) For estimated MIC determination, DMSO was added to the dried compound residue obtained from a single spot to afford ca. 100 μL of a 2 mM stock solution. Aliquots (5 μL) of these solutions were added to a 96-well plate, followed by 195 μL of diluted S. aureus 10390 (10^6 CFUs/mL) to yield ca. 50 μM final concentrations. The plates were swirled for 1 h to ensure compound dissolution, incubated for 12 h at 37° C., and the absorbance at 595 nm was recorded using a plate reader. […] Actual MIC values were determined for lead compounds resynthesized in solution using an analogous procedure with solutions of known concentration (see).
Preparation of spot samples and controls. An aliquot of DMSO (ca. 100 μL depending on the loading of the parent hydroxyacetophenone) was added to the dried compound residue obtained after TFA cleavage and elution from a single spot. This afforded a 2.0 mM “spot stock” solution for each spot. A small aliquot of each “spot stock” solution was saved for subsequent LC-MS analysis.
For estimated MIC screens, 5.0 μL portions of the “spot stock” solutions were added to the appropriate wells in a sterile, polystyrene 96-well plate to yield ca. 50 μM solutions (dependent on the initial loading of hydroxyacetopheneone and compound purity). To the positive and negative control wells, 5.0 μL of DMSO were added (positive controls contained bacteria but no compound, while negative controls had neither compound nor bacteria). All estimated MIC assays were performed in quadruplicate. Note: the MIC value is defined as the lowest concentration where no bacterial growth occurs.
Representative estimated MIC assay procedure. This assay procedure is based in part on the method reported by Strøm et al.^xiii A 400 μL portion of overnight S. aureus 10390 culture was diluted with 100 mL of sterile LB broth to give ca. 10^6 CFUs per mL. Aliquots (195 μL) of this solution were added to all of the wells in a sterile 96-well plate (except for the negative control wells; 195 μL of sterile LB broth were added to these wells). The plates were placed on an orbital shaker table and gently swirled for 1 h to ensure compound dissolution, and then incubated (without shaking) for 12 h at 37° C. The absorbance at 595 nm was recorded using a plate reader.
The original “spot stock” solutions of these compounds were diluted with DMSO to give ca. 25 and 13 μM final concentrations and tested for inhibitory activities using the procedure described above.

Experiment [2] relates to S. aureus ATCC 10390. In words: MIC determination with authentic compounds resynthesized in solution. Type of experiment: cell-based, Staphylococcus aureus. The following applies: Staphylococcus aureus, ATCC10390. The method, then: as §1
(§2) Dose response growth inhibition curves were determined for each active compound (resynthesized in solution) against S. aureus 10390 (SA) and methicillin-resistant S. aureus 33591 (MRSA). […] MIC assays were performed in quadruplicate.

Experiment [3] has as its system Methicillin-resistant S. aureus ATCC 33591 (MRSA). The experiment is described as above. The settings on record: Staphylococcus aureus; Table 3; authentic sample, only trans isomers of chalcones; error reflects step size in the serial dilutions. Type of experiment: cell-based. The method, then:
as §1, §2

Experiment [4] deals with B. subtilis subsp. spizizenii ATCC 6633. The experiment is described as follows: MIC determination, species selectivity. The settings on record: Bacillus subtilis, ATCC6633; authentic sample, only trans isomers of chalcones; error reflects step size. It is filed as cell-based. The procedure: (§3) Each compound from Table 3 was tested for inhibitory activity at 2.5, 5, 7.5, 10, 15, 20, 25, and 30 μM in the susceptible overlaid strains: B. subtilis ATCC 6633, S. epidermidis ATCC 12228, and K. pneumoniae ATCC 4352. MIC assays were run in quadruplicate as described above (with shaking).

Another experiment concerns K. pneumoniae ATCC 4352. In words: MIC determination, species selectivity. It is filed as cell-based. The settings on record: Klebsiella pneumoniae, ATCC4352; authentic sample, only trans isomers of chalcones; error reflects step size. The method, then:
as §3

Experiment [5] relates to S. epidermidis ATCC 12228. In words: MIC determination, species selectivity. Type of experiment: cell-based. The following applies: Staphylococcus epidermidis, ATCC12228; authentic sample, only trans isomers of chalcones; error reflects step size. The method, then: as §3
For the next experiment, the system named is K. pneumoniae. In words: Agar overlay TTC assay, compound overlays. It is filed as cell-based, Klebsiella pneumoniae. The following applies: 30 nanomole aliquots of purified compound on filter paper.
The subject of experiment [6] is S. aureus ATCC 10390. The experiment is described as follows: Kirby-Bauer disk diffusion assay on compound spots from cleaved macroarray. Type of experiment: cell-based, Staphylococcus aureus. The settings on record: loadings 30 μg/spot, 18 h incubation. The method, then:
While the heterocyclic libraries were being synthesized, the chalcone macroarrays were analyzed using various direct assay techniques such as the Kirby-Bauer disk diffusion assay (FIG. 2E). Bauer, A. W.; Kirby, […].; Turck, M. Technical Bulletin of the Registry of Medical Technologists 1966, 36, 49-52. For this assay, the macroarray members are punched out from the membrane, cleaved from the support with TFA vapor, neutralized with ammonia vapor, and then placed on an agar bed inoculated with S. aureus. After incubating overnight, different diameters of zones of inhibition are measured as a factor of potency as well as solubility in the medium. Ammonia vapor neutralization was key in the disk diffusion assay, otherwise residual TFA vapor created a false positive signature. However, in this method, macroarrays have to be made in triplicate one for a replicate and one for compound characterization. We first evaluated test chalcone macroarrays (3) in antibacterial assays against S. aureus. Because the macroarrays were prepared on cellulose filter paper, we had convenient access to the compounds in disk form for standard disk diffusion assays. Compound spots were punched out of the macroarrays, subjected to vapor phase cleavage with acid (TFA), and neutralized (NH3) to afford disks containing ca. 30 μg of adsorbed compound [8]. These disks were manually placed on lawns of S. aureus, and zones of inhibition were measured after an 18 h incubation period. […] However, this antibacterial assay format had drawbacks: (1) the entire sample of compound was consumed during the assay, and thus replicate arrays needed to be synthesized to confirm activity, and (2) manipulating large numbers of compound disks was relatively labor intensive. Compound spots were cleaved with TFA and neutralized with NH3 as described herein. […] Compound spots were placed onto the agar, the plate was incubated at 37° C. for 18 h, and the diameters of the zones of inhibition were measured. […] Compound spots were subjected to the TFA cleavage conditions described above. The spots were next subjected to NH3 vapor to neutralize any remaining TFA. […] Vials containing the spots (or intact macroarrays) were placed inside a small evaporating dish, and this was placed into the NH4OH solution. The Pyrex dish was covered, and NH3 vapor was allowed to slowly diffuse into the vials. After 1 h, the vials were removed from the NH3 chamber, and the spots were allowed to stand open in a fume hood for at least 15 min to vent prior to analysis in the following assays. This afforded dry, paper disks containing adsorbed compound. […] The plates were removed, and the diameters of the zones of inhibition were measured in mm using a ruler (see FIG. 1A).
In general terms: In agar diffusion tests the substance spreads into inoculated agar from a disc or well.

Experiment [7] has as its system S. aureus ATCC 10390. The experiment is described as follows: Agar overlay TTC assay. It is filed as cell-based, Staphylococcus aureus. The settings on record: methicillin susceptibility disk 10 μg, agar overlay TTC assay, 18 h. An excerpt: To take advantage of the spatially-addressed nature of the macroarray format, an agar overlay assay was employed that utilizes TTC (triphenyl tetrazolium chloride) as a visualization agent (FIG. 2[…].; Lu, A. T.; Solas, D. W.; Gore, […].; Coffin, […].; Wang, […].; Look, G. C.; Campbell, […]. Antimicrob. Agents Chemother. 1998, 1447-1453. Unfortunately, during macroarray synthesis the planarity of the support is not fully maintained, and small wrinkles develop in this particular assay. This problem was solved by using an adaptation of the common Western Blot technique to copy the macroarray members from the support to fresh wrinkle-free sheets while maintaining the spatially-addressed nature. This transfer can be completed in 90 seconds and four copies can be made at a time, however to date, it is applicable only for smaller macroarrays (6 cm×6 cm, 16 spots). The full macroarray was easily divided into these dimensions. The copies allowed for replicates to be made, and the original, which cannot be used in the assay, is used to validate the compounds by LCMS. As an added feature, the sensitivity of the assay was tuned by simply changing the amount of agar applied to the array. The copies generated in the assay can also be easily used to screened against multiple organisms. […] This assay format also took advantage of the spatially addressed nature of the arrays (FIG. 2C). […]

The mark [8] stands for this setting: Table 2, serial dilution of stock solutions obtained by SPOT-synthesis, read-out: estimated MIC range.
The mark [9] stands for this setting: Table 3, serial dilution of spot stock solutions of crude macroarray compounds, read-out: S. aureus Estimated MIC range.
[10] abbreviates: Table 2, authentic sample synthesized according to standard techniques, read-out: observed MIC.
[11] abbreviates: Table 3, authentic sample, only trans isomers of chalcones, error reflects step size in the serial dilutions, read-out: S. aureus MIC.

Converted amounts (≈) assume the structure as drawn. Bounds are passed on as bounds.

As usually defined, the MIC is the smallest concentration in the dilution series that meets the test's criterion for growth inhibition. With `O=C(/C=C/c1cccc(Br)c1)c1cccc(O)c1` [Compound 4Be, 3-bromo-3′-hydroxychalcone], the MIC with S. aureus ATCC 10390 [1] (setting [8]) was 25 to 50 µM (≈ 7.58 to 15.2 µg/mL); in the experiment on S. aureus ATCC 10390 [1] (setting [9]), 25 to 50 µM (≈ 7.58 to 15.2 µg/mL); with S. aureus ATCC 10390 [2] (setting [10]), 24 ± 2 µM (≈ 7.28 µg/mL); in the experiment on S. aureus ATCC 10390 [2] (setting [11]), 21 ± 1 µM (≈ 6.37 µg/mL); in experiment [3], 20 ± 1 µM (≈ 6.06 µg/mL); in experiment [4], 22.5 ± 2.5 µM (≈ 6.82 µg/mL). The minimum inhibitory concentration (MIC) amounted to 40 ± 10 µM (≈ 12.1 µg/mL) in the experiment with K. pneumoniae ATCC 4352 and 22.5 ± 2.5 µM (≈ 6.82 µg/mL) in experiment [5]. The “susceptibility in agar overlay TTC assay” value in the experiment on K. pneumoniae is on record as “weakly susceptible”.
On to `O=C(/C=C/c1cccc(Cl)c1Cl)c1cccc(O)c1` [Compound 4Bl, 2,3-dichloro-3′-hydroxychalcone], for which, in the experiment with S. aureus ATCC 10390 [6], the Zones of inhibition was found to be 19 mm. In addition, the minimum inhibitory concentration (MIC) is 12.5 to 25 µM (≈ 3.66 to 7.33 µg/mL) in the experiment on S. aureus ATCC 10390 [1] (setting [8]); 12.5 to 25 µM (≈ 3.66 to 7.33 µg/mL) with S. aureus ATCC 10390 [1] (setting [9]); 13.8 ± 1.2 µM (≈ 4.05 µg/mL) with S. aureus ATCC 10390 [2] (setting [10]); 15 ± 0.5 µM (≈ 4.4 µg/mL) in the experiment on S. aureus ATCC 10390 [2] (setting [11]); 15 ± 0.5 µM (≈ 4.4 µg/mL) in experiment [3]; 22.5 ± 2.5 µM (≈ 6.6 µg/mL) in [4]. The MIC was greater than 250 µM with K. pneumoniae ATCC 4352 and 12.5 ± 2.5 µM (≈ 3.66 µg/mL) in experiment [5]. In addition, in the experiment with K. pneumoniae, the “susceptibility in agar overlay TTC assay” value is listed as “weakly susceptible”.
On to `O=C(/C=C/c1c(Cl)ccc(Cl)c1Cl)c1cccc(O)c1` [Compound 4Bo, 3′-hydroxy-2,3,6-trichlorochalcone], for which the “inhibition of S. aureus at the 12.5 μM level” value with S. aureus ATCC 10390 [1] (12.5 μM, macroarray stock solutions diluted four fold) is on record as “complete inhibition”. The minimum inhibitory concentration (MIC) was 6.25 to 12.5 µM (≈ 2.05 to 4.09 µg/mL) in the experiment with S. aureus ATCC 10390 [1] (setting [8]); less than 12.5 µM with S. aureus ATCC 10390 [1] (setting [9]); 6.5 ± 0.5 µM (≈ 2.13 µg/mL) in the experiment on S. aureus ATCC 10390 [2] (setting [10]); 10 ± 1 µM (≈ 3.28 µg/mL) in the experiment on S. aureus ATCC 10390 [2] (setting [11]); 10 ± 1 µM (≈ 3.28 µg/mL) in experiment [3]; 8.8 ± 1.2 µM (≈ 2.88 µg/mL) in experiment [4]. For the same compound, the values for the minimal inhibitory concentration (MIC) (with K. pneumoniae ATCC 4352; in experiment [5]) were greater than 250 µM and 12.5 ± 2.5 µM (≈ 4.09 µg/mL), respectively. In addition, in the experiment with K. pneumoniae, the “susceptibility in agar overlay TTC assay” value is on record as “weakly susceptible”.
Regarding `COc1cccc(OC)c1C(=O)N[C@@H]1C(=O)N2[C@@H]1SC(C)(C)[C@@H]2C(=O)O` [methicillin, reference compound], the Zone of inhibition in the experiment on S. aureus ATCC 10390 [7] was 39 mm.

The values are drawn from patent US8227616B2, “Cyanopyridine antibacterial agents and methods of use thereof” (Wisconsin Alumni Research Foundation, priority 2006, dated 2012).
